For orientation: IC50 means the concentration that gives 50% inhibition.

We go through 34 compounds from patent US10093623B2, “Cyclic amides as MetAP-2 inhibitors” (MERCK PATENT GmbH, priority 2012, dated 2018).

Each structure is given as a SMILES string.

The assay has as its target MetAP-2 (Homo sapiens, UniProt P50579). Briefly: MetAP-2 activity measurement (coupled enzymatic reactions, Met-Arg-Ser substrate, dianisidine detection at 450 nm). The conditions noted are these: Inhibition of MetAP-2; read-out: IC50 enzyme. It is filed as biochemical. As for the experimental part:
MetAP-2 Activity Measurement
The MetAP-2 activity is determined by coupling enzymatic reactions. The tripeptide Met-Arg-Ser (MAS) is employed as substrate. The methionine liberated is firstly converted into Metox and H2O2 by L-aminooxidase (AAO). In the second step, the peroxidase (POD) with the aid of the H2O2 catalyses the oxidation of the leukodye dianisidine to dianisidineox, the increase of which is detected photometrically at 450 nm.
MetAP-2 activity can be recorded continuously as kinetics. The reaction scheme illustrates that one mol of dianisidineox is formed per mol of methionene. The MetAP-2 enzyme activity can therefore be calculated directly as A absorption per time unit. Qualification of the MetAP-2 activity (mol of Met/time unit) is possible with the aid of the dianisidineox extinction coefficient.
The change in extinction per time unit is depicted graphically and a slope calculation is carried out in the visually linear region of the reaction.

Sequence of MetAP-2 (P50579 whole entry, species assumed): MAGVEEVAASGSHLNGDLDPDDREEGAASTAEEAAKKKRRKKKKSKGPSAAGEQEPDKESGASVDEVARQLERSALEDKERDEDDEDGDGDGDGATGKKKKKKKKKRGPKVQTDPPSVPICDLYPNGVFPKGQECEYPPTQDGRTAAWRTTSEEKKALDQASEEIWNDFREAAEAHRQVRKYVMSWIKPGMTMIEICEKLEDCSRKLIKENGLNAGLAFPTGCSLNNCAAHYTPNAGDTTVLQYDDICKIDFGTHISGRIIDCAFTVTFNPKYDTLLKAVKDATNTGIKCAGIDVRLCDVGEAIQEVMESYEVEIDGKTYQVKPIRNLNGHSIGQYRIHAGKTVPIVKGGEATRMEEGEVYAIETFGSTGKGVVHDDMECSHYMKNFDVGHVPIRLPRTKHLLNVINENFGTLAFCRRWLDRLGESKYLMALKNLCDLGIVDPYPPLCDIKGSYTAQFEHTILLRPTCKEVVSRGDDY

Consider `O=C(c1cccc(N2CC[C@](O)(C(=O)NCc3cc(F)cc(Cl)c3)C2=O)c1)N1CCCCC1` [A95, N-(3-Chloro-5-fluorobenzyl)-(S)-3-hydroxy-2-oxo-1-[3-(piperidin-1-carbonyl)phenyl]pyrrolidine-3-carboxamide], for which the IC50 lay in the range of 0.01 to 1 µM.

In the case of `CCS(=O)(=O)NC1CCCC(N2CCC(O)(C(=O)NCc3cc(F)cc(Cl)c3)C2=O)C1` (stereo not shown) [A128, N-(3-Chloro-5-fluorobenzyl)-1-(3-ethanesulfonylamino-cyclohexyl)-3-hydroxy-2-oxo-pyrrolidine-3-carboxamide], the half-inhibitory concentration (IC50) fell in the range of 1 to 10 µM.

Regarding `CCC(=O)Nc1ccc(N2CC[C@@](O)(C(=O)NCc3cc(F)cc(Cl)c3)C2=O)cn1` [A172, N-(3-Chloro-5-fluorobenzyl)-(R)-3-hydroxy-2-oxo-1-(6-propionylaminopyridin-3-yl)-pyrrolidine-3-carboxamide], the IC50 fell in the range of 1 to 10 µM.

For the compound `O=C(NCc1cc(F)cc(Cl)c1)[C@@]1(O)CCN(c2ccc3[nH]c(=O)[nH]c3c2)C1=O` [B71, N-(3-Chloro-5-fluorobenzyl)-(S)-3-hydroxy-2-oxo-1-(2-oxo-2,3-dihydro-1H-benzimidazol-5-yl)-pyrrolidine-3-carboxamide], the IC50 fell in the range of 0.01 to 1 µM.

For `CC(C)(C)OC(=O)N1CCC(n2cc(N3CCC(O)(C(=O)NCc4cc(F)cc(Cl)c4)C3=O)cn2)CC1` (stereo not shown) [A170, tert-Butyl 4-{4-[3-(3-chloro-5-fluorobenzylcarbamoyl)-3-hydroxy-2-oxopyrrolidin-1-yl]-pyrazol-1-yl}-piperidine-1-carboxylate], the IC50 was in the range of 0.01 to 1 µM.

`CN(CCO)C(=O)c1cccc(N2CC[C@](O)(C(=O)NCc3cc(F)cc(Cl)c3)C2=O)c1` [A93, N-(3-Chloro-5-fluorobenzyl)-(S)-3-hydroxy-1-{3-[(2-hydroxy-ethyl)methylcarbamoyl]phenyl}-2-oxopyrrolidine-3-carboxamide]: the IC50 lay within 1 to 10 µM.

For the compound `CC(=O)Nc1ccc(N2CC[C@](O)(C(=O)NCCc3cc(F)cc(Cl)c3)C2=O)cn1` [A155, N-[2-(3-Chloro-5-fluorophenyl)-ethyl]-(S)-1-(6-acetylamino-pyridin-3-yl)-3-hydroxy-2-oxo-pyrrolidine-3-carboxamide], the IC50 is 0.01 to 1 µM.

As to `OC1(CNCc2cc(F)cc(Cl)c2)CCN(Cc2ccccc2)C1` (stereo not shown) [B30, 1-Benzyl-3-[(3-chloro-5-fluorobenzylamino)methyl]-pyrrolidin-3-ol], the IC50 was above 10 µM.

Take `OC1(CNCc2cc(F)cc(F)c2)CCCN(Cc2ccccc2)C1` (stereo not shown) [B44, 1-Benzyl-3-[(3,5-difluorobenzylamino)methyl]-piperidin-3-ol]: the IC50 is above 10 µM.

Consider `NC(=O)c1cc(C(N)=O)cc(N2CCC(O)(C(=O)NCc3cc(F)cc(Cl)c3)C2=O)c1` (stereo not shown) [A130, 5-[3-(3-Chloro-5-fluorobenzylcarbamoyl)-3-hydroxy-2-oxopyrrolidin-1-yl]-isophthalamide], for which the IC50 lay in the range of 1 to 10 µM.

`C/C=C/C(=O)[C@@]1(O)CCN(c2ccccc2)C1=O` [A70, (S)-3-((E)-but-2-enoyl)-3-hydroxy-1-phenylpyrrolidin-2-one]: the IC50 is above 10 µM.

For the compound `CNC(=O)c1cc2cc(N3CCC(O)(C(=O)NCc4cc(F)cc(Cl)c4)C3=O)ccc2o1` (stereo not shown) [A146, N-(3-Chloro-5-fluorobenzyl)-3-hydroxy-1-(2-methylcarbamoyl-benzofuran-5-yl)-2-oxo-pyrrolidine-3-carboxamide], the IC50 is 0.01 to 1 µM.

On to `O=C(NCc1cccc(F)c1)[C@]1(O)CCCN(Cc2cccc(F)c2F)C1=O` [A261, N-(3-Fluorobenzyl)-(R)-1-(2,3-difluorobenzyl)-3-hydroxy-2-oxo-piperidine-3-carboxamide], for which the IC50 was above 10 µM.

Consider `O=C(NCc1cc(F)cc(Cl)c1)C1(O)CCN(c2ccc(N3CCOCC3)nc2)C1=O` (stereo not shown) [A173, N-(3-Chloro-5-fluorobenzyl)-3-hydroxy-1-(6-morpholin-4-yl-pyridin-3-yl)-2-oxopyrrolidine-3-carboxamide], for which the IC50 lay within 0.01 to 1 µM.

For the compound `O=C1CCc2cc(N3CC[C@](O)(C(=O)NCc4ccc(F)cc4Cl)C3=O)ccc2N1` [A242, N-(2-Chloro-4-fluorobenzyl)-(S)-3-hydroxy-2-oxo-1-(2-oxo-1,2,3,4-tetrahydroquinolin-6-yl)-pyrrolidine-3-carboxamide], the IC50 fell in the range of 0.01 to 1 µM.

On to `CCOC(=O)[C@H]1CC[C@H](N2CCC(O)(C(=O)NCc3cc(F)cc(Cl)c3)C2=O)CC1` (stereo partly shown) [A148, Ethyl 4-[3-(3-chloro-5-fluorobenzylcarbamoyl)-3-hydroxy-2-oxopyrrolidin-1-yl]-cyclohexanecarboxylate], for which the IC50 lay in the range of 1 to 10 µM.

Take `O[C@]1(CNCc2ccc(F)cc2)CCCN(Cc2ccccc2)C1` [B21, (S)-1-Benzyl-3-[(4-fluorobenzylamino)methyl]-piperidin-3-ol]: the IC50 is above 10 µM.

For the compound `CN(c1cccc(N2CC[C@@](O)(C(=O)NCc3cc(F)cc(Cl)c3)C2=O)c1)S(C)(=O)=O` [A166, N-(3-Chloro-5-fluorobenzyl)-(R)-3-hydroxy-1-[3-(methane-sulfonylmethylamino)phenyl]-2-oxopyrrolidine-3-carboxamide], the half-maximal inhibitory concentration (IC50) was 1 to 10 µM.

In the case of `O=C1N(Cc2cccc(F)c2F)CCC[C@]1(O)CNCc1cccc(F)c1` [B22, (S)-1-(2,3-Difluorobenzyl)-3-[(3-fluorobenzylamino)methyl]-3-hydroxypiperidin-2-one], the IC50 lay in the range of 0.01 to 1 µM.

In the case of `O=C(NCc1cc(F)cc(Cl)c1)[C@@]1(O)CCN(Cc2ccccc2)C1=O` [A140, N-(3-Chloro-5-fluorobenzyl)-(S)-1-benzyl-3-hydroxy-2-oxo-pyrrolidine-3-carboxamide], the IC50 was in the range of 0.01 to 1 µM.

Turning to `O=C(NCc1cc(F)cc(Cl)c1)[C@@]1(O)CCN(c2ccc3[nH]cc(C(F)(F)F)c3c2)C1=O` [B74, N-(3-Chloro-5-fluorobenzyl)-(S)-3-hydroxy-2-oxo-1-(3-trifluoro-methyl-1H-indol-5-yl)pyrrolidine-3-carboxamide], the IC50 was in the range of 0.01 to 1 µM.

For `O=C1NCCc2ccc(N3CCC(O)(C(=O)NCc4cc(F)cc(Cl)c4)C3=O)cc21` (stereo not shown) [A115, N-(3-Chloro-5-fluorobenzyl)-3-hydroxy-2-oxo-1-(1-oxo-1,2,3,4-tetrahydroisoquinolin-7-yl)-pyrrolidine-3-carboxamide], the IC50 lay within 0.01 to 1 µM.

Consider `O=C(NCc1cc(F)cc(Cl)c1)[C@@]1(O)CCN(c2cnc3[nH]cc(C(F)(F)F)c3c2)C1=O` [B139, N-(3-Chloro-5-fluorobenzyl)-(S)-3-hydroxy-2-oxo-1-(3-trifluoro-methyl-1H-pyrrolo[2,3-b]pyridin-5-yl)pyrrolidine-3-carboxamide], for which the IC50 is 0.01 to 1 µM.

For `O=C1CCc2cc(NC(=O)C3(O)CCN(c4ccc5c(c4)CCC(=O)N5)C3=O)ccc2N1` (stereo not shown) [B50, N-(2-Oxo-1,2,3,4-tetrahydro-quinolin-6-yl)-3-hydroxy-2-oxo-1-(2-oxo-1,2,3,4-tetrahydro-quinolin-6-yl)pyrrolidine-3-carboxamide], the IC50 is above 10 µM.

For `O=C(NCc1cccc(F)c1)[C@@]1(O)CCCN(CC2CCCCC2)C1=O` [A256, N-(3-fluorobenzyl)-(S)-1-cyclohexylmethyl-3-hydroxy-2-oxopiperidine-3-carboxamide], the IC50 was 0.01 to 1 µM.

For `O=C(NCCc1cc(F)cc(F)c1)[C@@]1(O)CCN(c2ccc3[nH]ccc3c2)C1=O` [B110, N-[2-(3,5-Difluorophenyl)ethyl]-(S)-3-hydroxy-1-(1H-indol-5-yl)-2-oxopyrrolidine-3-carboxamide], the IC50 fell in the range of 0.01 to 1 µM.

In the case of `O=C(NCc1ccc(F)cc1)C1(O)CCCN(Cc2ccc(F)c(F)c2)C1=O` (stereo not shown) [A257, N-(4-Fluorobenzyl)-1-(3,4-difluorobenzyl)-3-hydroxy-2-oxo-piperidine-3-carboxamide], the IC50 was in the range of 1 to 10 µM.

`O=C1CCc2cc(N3CC[C@@](O)(C(=O)NCc4cccc(F)c4)C3=O)ccc2N1` [B57, N-(3-Fluorobenzyl)-(R)-3-hydroxy-2-oxo-1-(2-oxo-1,2,3,4-tetrahydroquinolin-6-yl)-pyrrolidine-3-carboxamide]: the IC50 was above 10 µM.

Consider `Cc1cc2cc(N3CC[C@@](O)(C(=O)NCc4cc(F)cc(Cl)c4)C3=O)cnc2[nH]1` [B61, N-(3-Chloro-5-fluorobenzyl)-(R)-3-hydroxy-1-(2-methyl-1H-pyrrolo[2,3-b]pyridin-5-yl)-2-oxo-pyrrolidine-3-carboxamide], for which the IC50 was in the range of 1 to 10 µM.

For `N#Cc1cncc(N2CC[C@](O)(C(=O)NCc3cc(F)cc(Cl)c3)C2=O)c1` [A107, N-(3-Chloro-5-fluorobenzyl)-(S)-1-(5-cyanopyridin-3-yl)-3-hydroxy-2-oxopyrrolidine-3-carboxamide], the IC50 lay in the range of 1 to 10 µM.

As for `CN1CCCC1CCNC(=O)[C@@]1(O)CCN(c2ccccc2)C1=O` (stereo partly drawn) [A63, N-[2-(1-Methylpyrrolidin-2-yl)ethyl]-(S)-3-hydroxy-2-oxo-1-phenyl-pyrrolidine-3-carboxamide], the IC50 was above 10 µM.

Consider `OC1(CNCc2cccc(F)c2)CCCN(Cc2ccccc2)C1` (stereo not shown) [B20, 1-Benzyl-3-[(3-fluorobenzylamino)methyl]-piperidin-3-ol], for which the IC50 is above 10 µM.

Turning to `O=C(c1cc2cc(N3CC[C@](O)(C(=O)NCc4cc(F)cc(Cl)c4)C3=O)ccc2[nH]1)N1CCOCC1` [B112, N-(3-Chloro-5-fluorobenzyl)-(S)-3-hydroxy-1-[2-(morpholine-4-carbonyl)-1H-indol-5-yl]-2-oxo-pyrrolidine-3-carboxamide], the half-inhibitory concentration (IC50) lay in the range of 0.01 to 1 µM.

As to `O=C1CCc2cc(N3CC[C@](O)(C(=O)NCc4c(F)ccc(F)c4Cl)C3=O)ccc2N1` [A244, N-(2-Chloro-3,6-difluorobenzyl)-(S)-3-hydroxy-2-oxo-1-(2-oxo-1,2,3,4-tetrahydroquinolin-6-yl)-pyrrolidine-3-carboxamide], the IC50 fell in the range of 0.01 to 1 µM.
